Holding throughout (assay type): biochemical
The target of one assay is CDK9/CycT1 (Homo sapiens, UniProt P50750). Description: ADP-Glo kinase assay on CDK enzymatic activity, CDK9/CycT1. The conditions noted are these: 10 concentrations from 10 μM, 4-fold, 60 min room temperature. The gist of the method: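 Kinase and compound are mixed and held 10 min at room temperature before substrate peptide and ATP start a 60 min reaction. Remaining ATP is depleted with ADP-Glo reagent (40 min), detection reagent is added (40 min), and luminescence gives inhibition rates across ten concentrations from 10 μM, fitted to IC50.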
(In general: In ADP-Glo the light output rises with the ADP produced.)

In a further assay the target is CDK2/CycA2 (Homo sapiens, UniProt P24941). Description: ADP-Glo kinase assay on CDK enzymatic activity, CDK2/CycA2. Particulars: 10 concentrations from 10 μM, 4-fold, 60 min room temperature. From the text: (§1) Test samples: the compounds of the present invention, having structures shown above.
(§2) ADP-Glo Kinase Assay (ADP-Glo kinase kit), DMSO (dimethyl sulfoxide), CDK9/CycT1 (cyclin-dependent kinase 9/cyclin T1), CDK tide (cyclin-dependent kinase substrate peptide fragments), CDK1/CycE1 (cyclin-dependent kinase 1/cyclin E1), CDK2/CycA2 (cyclin-dependent kinase 2/cyclin A2), CDK3/CycE1 (cyclin-dependent kinase 3/cyclin E1), CDK4/CycD3 (cyclin-dependent kinase 4/cyclin D3), CDK5/p25NCK (cyclin-dependent kinase 5/p25), and AZD 4573.
(§3) A 384-well white plate, a 96-well plate, a microplate oscillator, a centrifuge, and a microplate reader.
(§4) The compounds were dissolved in DMSO and diluted 4-fold in the 96-well plate to obtain stock solutions with 10 concentration gradients, and added into a 384-well plate system to obtain a series of 10 concentration gradients of compound solutions with final concentrations of 10 μM starting and 4-fold gradient decreasing. 1 μM AZD4573 was used as compound positive control (PC) and 0.5% DMSO as solvent vehicle control (VC), ten duplicated wells each for PC and VC.
(§5) 1 μL of compound solution and 2 μL of 2× kinase solution were transferred to each well, and the plate was centrifuged at 1000 g for 30 s and left at room temperature for 10 min. A mixture of 2× substrate and ATP was prepared in 1× kinase buffer. The reaction was started after adding 2 μL of substrate and ATP into the plate. The plate was centrifuged at 1000 g for 30 s. The assay plate was closed and left at room temperature for 60 min. The reaction system was added with 4 μL of ADP Glo reagent, centrifuged at 1000 rpm for 1 min, and incubated at room temperature for 40 min. The reaction system was added with 8 μL of kinase assay reagent, centrifuged at 1000 rpm for 1 min and incubated at room temperature for 40 min. The […] was read on Biotek.
(§6) The inhibition rate was calculated according to the following formula: […]
(§7) Lumcmpd: compound fluorescence reading; Lumpositive: average value of the fluorescence reading of positive compound control; Lumvehicle: average value of the fluorescence reading of solvent vehicle control.
(§8) IC50 values were fitted using GraphPad 7.0 based on inhibition rates of compounds at different concentrations.

The target in another assay is CDK3/CycE1 (Homo sapiens, UniProt Q00526). Kind of assay: ADP-Glo kinase assay on CDK enzymatic activity, CDK3/CycE1. Particulars: 10 concentrations from 10 μM, 4-fold, 60 min room temperature.
Source text: as §1, §2, §3, §4, §5, §6, §7, §8

The target in a further assay is CDK5/p25NCK (Homo sapiens, UniProt Q00535). Description: ADP-Glo kinase assay on CDK enzymatic activity, CDK5/p25NCK. Particulars: 10 concentrations from 10 μM, 4-fold, 60 min room temperature.
Source text: as §1, §2, §3, §4, §5, §6, §7, §8

A further assay has as its target CDK1/CycE1 (Homo sapiens, UniProt P06493). Description: ADP-Glo kinase assay on CDK enzymatic activity, CDK1/CycE1. Particulars: ADP-Glo; 10 concentrations from 10 μM, 4-fold; 60 min room temperature; read-out: CDK1/CycE1/nM (IC50). On the procedure: as §1, §3, §4, §5, §6, §7, §8

From patent US20250163043A1 (TRANSTHERA SCIENCES (NANJING), INC., priority 2021, published 2025) come the findings set out here.

CDK3/CycE1, sequence (Q00526 whole entry, species assumed): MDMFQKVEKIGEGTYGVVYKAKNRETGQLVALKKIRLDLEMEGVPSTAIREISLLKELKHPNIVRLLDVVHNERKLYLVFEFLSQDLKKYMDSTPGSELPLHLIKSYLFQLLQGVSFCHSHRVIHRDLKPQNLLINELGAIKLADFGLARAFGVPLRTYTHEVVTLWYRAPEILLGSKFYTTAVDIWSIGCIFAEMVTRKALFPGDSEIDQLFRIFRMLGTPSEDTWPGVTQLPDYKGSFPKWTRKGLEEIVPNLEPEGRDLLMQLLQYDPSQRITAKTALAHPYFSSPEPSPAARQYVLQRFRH
CDK3/CycE1, sequence (P24864 whole entry partner, species assumed): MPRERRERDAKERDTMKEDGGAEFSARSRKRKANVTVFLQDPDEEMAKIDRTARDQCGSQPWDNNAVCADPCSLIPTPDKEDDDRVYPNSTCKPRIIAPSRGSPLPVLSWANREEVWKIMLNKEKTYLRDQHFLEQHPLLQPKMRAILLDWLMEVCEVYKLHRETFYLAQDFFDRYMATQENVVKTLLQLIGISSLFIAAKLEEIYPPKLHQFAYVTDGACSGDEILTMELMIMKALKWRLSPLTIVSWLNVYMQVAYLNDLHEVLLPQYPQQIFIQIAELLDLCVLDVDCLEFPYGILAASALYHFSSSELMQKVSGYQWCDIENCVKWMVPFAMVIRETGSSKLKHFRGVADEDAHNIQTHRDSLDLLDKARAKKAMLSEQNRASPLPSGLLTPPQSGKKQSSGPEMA
CDK1/CycE1, sequence (P06493 whole entry, species assumed): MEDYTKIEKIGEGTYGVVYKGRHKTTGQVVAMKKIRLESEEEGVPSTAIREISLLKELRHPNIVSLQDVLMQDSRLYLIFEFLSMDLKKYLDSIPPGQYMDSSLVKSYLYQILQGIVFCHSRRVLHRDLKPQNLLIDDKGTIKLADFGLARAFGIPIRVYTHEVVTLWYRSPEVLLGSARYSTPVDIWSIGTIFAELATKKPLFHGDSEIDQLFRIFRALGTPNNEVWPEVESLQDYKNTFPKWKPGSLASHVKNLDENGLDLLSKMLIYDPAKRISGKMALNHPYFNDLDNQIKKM
CDK1/CycE1, sequence (P24864 whole entry partner, species assumed): as the sequence (P24864 whole entry partner, species assumed) above
CDK5/p25NCK, sequence (Q00535 whole entry, species assumed): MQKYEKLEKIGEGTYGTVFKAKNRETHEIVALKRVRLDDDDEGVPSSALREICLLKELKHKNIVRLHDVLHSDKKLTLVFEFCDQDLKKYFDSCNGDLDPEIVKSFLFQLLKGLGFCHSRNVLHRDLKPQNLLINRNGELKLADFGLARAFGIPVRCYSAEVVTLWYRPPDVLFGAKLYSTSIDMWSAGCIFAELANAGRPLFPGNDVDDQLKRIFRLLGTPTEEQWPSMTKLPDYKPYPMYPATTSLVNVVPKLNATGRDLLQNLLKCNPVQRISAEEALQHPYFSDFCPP
CDK5/p25NCK, sequence (Q15078 99-307 partner limits assumed, species assumed): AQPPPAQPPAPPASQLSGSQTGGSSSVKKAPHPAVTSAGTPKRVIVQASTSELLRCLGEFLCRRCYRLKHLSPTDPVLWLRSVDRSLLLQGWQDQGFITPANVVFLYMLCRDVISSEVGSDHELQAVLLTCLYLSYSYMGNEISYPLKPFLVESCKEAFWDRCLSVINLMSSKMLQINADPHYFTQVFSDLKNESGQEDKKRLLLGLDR
CDK9/CycT1, sequence (P50750 whole entry): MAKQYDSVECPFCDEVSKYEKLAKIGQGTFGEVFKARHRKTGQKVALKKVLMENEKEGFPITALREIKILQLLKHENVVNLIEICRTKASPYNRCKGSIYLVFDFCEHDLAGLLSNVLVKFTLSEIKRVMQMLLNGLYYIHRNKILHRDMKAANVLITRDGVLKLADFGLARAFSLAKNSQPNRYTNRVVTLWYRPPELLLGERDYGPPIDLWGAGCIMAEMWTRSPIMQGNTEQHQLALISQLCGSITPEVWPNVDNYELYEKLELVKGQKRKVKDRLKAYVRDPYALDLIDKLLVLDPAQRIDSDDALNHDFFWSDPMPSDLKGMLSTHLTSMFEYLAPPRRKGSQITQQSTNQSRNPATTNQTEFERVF
CDK9/CycT1, sequence (O60563 whole entry partner): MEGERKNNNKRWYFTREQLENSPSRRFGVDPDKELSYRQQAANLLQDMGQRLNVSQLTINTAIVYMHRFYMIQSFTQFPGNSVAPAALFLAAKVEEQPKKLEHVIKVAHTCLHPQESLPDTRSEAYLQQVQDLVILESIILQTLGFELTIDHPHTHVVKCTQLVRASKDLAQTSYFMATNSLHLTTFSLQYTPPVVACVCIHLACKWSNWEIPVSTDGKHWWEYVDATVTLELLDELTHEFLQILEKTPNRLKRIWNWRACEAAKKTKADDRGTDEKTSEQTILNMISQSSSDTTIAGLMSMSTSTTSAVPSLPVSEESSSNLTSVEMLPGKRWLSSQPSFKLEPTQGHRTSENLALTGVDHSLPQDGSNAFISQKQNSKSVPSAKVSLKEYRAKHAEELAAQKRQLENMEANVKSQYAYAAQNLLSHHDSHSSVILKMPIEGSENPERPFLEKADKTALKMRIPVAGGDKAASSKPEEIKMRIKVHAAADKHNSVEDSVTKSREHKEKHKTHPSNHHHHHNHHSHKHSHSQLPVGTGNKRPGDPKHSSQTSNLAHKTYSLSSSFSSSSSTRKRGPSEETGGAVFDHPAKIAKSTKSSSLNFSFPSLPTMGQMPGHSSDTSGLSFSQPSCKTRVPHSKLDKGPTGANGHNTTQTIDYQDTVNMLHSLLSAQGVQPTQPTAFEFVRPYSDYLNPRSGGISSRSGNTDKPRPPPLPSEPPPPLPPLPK

For the molecule `CC(=O)N[C@@H]1CCC[C@H](C(=O)Nc2cc3c(NC(C)C)nc(C#N)cc3cn2)C1` [Compound 2, (1S,3R)-3-acetamido-N-(7-cyano-5-(isopropylamino)-2,6-naphthyridin-3-yl)cyclohexane-1-carboxamide], the IC50 was 8 nM on CDK9/CycT1, 669 nM at CDK2/CycA2, 179 nM against CDK3/CycE1 and 783 nM on CDK5/p25NCK.

Take `C#Cc1cc2cnc(NC(=O)[C@H]3CCC[C@@H](NC(C)=O)C3)cc2c(NC(C)C)n1` [Compound 13, (1S,3R)-3-acetamido-N-(7-ethynyl-5-(isopropylamino)-2,6-naphthyridin-3-yl)cyclohexane-1-carboxamide]: the IC50 came to 13 nM against CDK9/CycT1, 402 nM against CDK2/CycA2, 41 nM at CDK3/CycE1 and 527 nM at CDK5/p25NCK.

Consider `CC(=O)N[C@@H]1CCC[C@H](C(=O)Nc2cc3c(NC(C)C)nc(CCO)cc3cn2)C1` [Compound 14, (1S,3R)-3-acetamido-N-(7-(2-hydroxyethyl)-5-(isopropylamino)-2,6-naphthyridin-3-yl)cyclohexane-1-carboxamide], for which the IC50 against CDK9/CycT1 worked out at 11 nM; at CDK2/CycA2, 284 nM; against CDK3/CycE1, 91 nM; against CDK5/p25NCK it was 187 nM.

On to `CC(=O)N1CCC[C@H](C(=O)Nc2cc3c(NC(C)C)nc(C#N)cc3cn2)C1` [Compound 24, (S)-1-acetyl-N-(7-cyano-5-(isopropylamino)-2,6-naphthyridin-3-yl)piperidine-3-carboxamide], for which the IC50 stood at 26 nM against CDK9/CycT1, 3340 nM against CDK2/CycA2, 862 nM against CDK3/CycE1 and 5340 nM against CDK5/p25NCK.

On to `CC(C)Nc1nc(C#N)cc2cnc(N[C@H]3CC[C@@H](N)C3)cc12` [Compound 29, 7-(((1S,3R)-3-aminocyclopentyl)amino)-1-(isopropylamino)-2,6-naphthyridine-3-carbonitrile], for which the IC50 against CDK9/CycT1 amounted to 4 nM; against CDK2/CycA2 it was 514 nM; on CDK3/CycE1 it was 1210 nM; against CDK5/p25NCK, 461 nM.

For the molecule `CC(C)(C)Nc1nc(C#N)cc2cnc(N[C@H]3CC[C@H](N)C3)cc12` [Compound 34, 7-(((1S,3S)-3-aminocyclopentyl)amino)-1-(tert-butylamino)-2,6-naphthyridine-3-carbonitrile], the IC50 came out at 2 nM at CDK9/CycT1, 128 nM at CDK2/CycA2, 137 nM at CDK3/CycE1 and 238 nM on CDK5/p25NCK.

For the molecule `CC(C)(C)Nc1nc(C#N)cc2cnc(N[C@H]3CC[C@H](O)C3)cc12` [Compound 35, 1-(tert-butylamino)-7-(((1S,3S)-3hydroxycyclopentyl)amino)-2,6-naphthyridine-3-carbonitrile], the IC50 against CDK9/CycT1 is 1 nM; at CDK2/CycA2, 14 nM; against CDK3/CycE1, 35 nM; against CDK5/p25NCK it was 36 nM.

As for `CC(C)Nc1nc(C#N)cc2cnc(N[C@@H]3CCCNC3)cc12` [Compound 39, (R)-1-(isopropylamino)-7-(piperidin-3-ylamino)-2,6-naphthyridine-3-carbonitrile], the IC50 came out at 2 nM against CDK9/CycT1, 84 nM against CDK2/CycA2, 278 nM against CDK3/CycE1 and 161 nM against CDK5/p25NCK.

For `CC(C)Nc1nc(C#N)cc2cnc(N[C@@H]3CNCC(F)(F)C3)cc12` [Compound 43, (S)-7-((5,5-difluoropiperidin-3-yl)amino)-1-(isopropylamino)-2,6-naphthyridine-3-carbonitrile], the IC50 was found to be 2 nM at CDK9/CycT1, 13 nM on CDK2/CycA2, 75 nM on CDK3/CycE1 and 23 nM against CDK5/p25NCK.

For `CC(C)Nc1nc(C#N)cc2cnc(N[C@@H]3CN4CCC3CC4)cc12` [Compound 44, (S)-1-(isopropylamino)-7-(quinuclidin-3-ylamino)-2,6-naphthyridine-3-carbonitrile], the IC50 against CDK9/CycT1 is 2 nM; against CDK2/CycA2 it was 1170 nM; at CDK3/CycE1, 288 nM; against CDK5/p25NCK it was 3630 nM.

In the case of `CCC(CC)Nc1nc(C#N)cc2cnc(N[C@H]3CC[C@H](N)C3)cc12` [Compound 48, 7-(((1S,3S)-3-aminocyclopentyl)amino)-1-(pentan-3-ylamino)-2,6-naphthyridine-3-carbonitrile], the IC50 is 2 nM against CDK9/CycT1, 199 nM against CDK2/CycA2, 477 nM on CDK3/CycE1 and 266 nM on CDK5/p25NCK.

As to `N#Cc1cc2cnc(N[C@H]3CC[C@H](N)C3)cc2c(NC2CCCC2)n1` [Compound 49, 7-(((1S,3S)-3-aminocyclopentyl)amino)-1-(cyclopentylamino)-2,6-naphthyridine-3-carbonitrile], the IC50 on CDK9/CycT1 turned out to be 2 nM; against CDK2/CycA2, 57 nM; at CDK3/CycE1, 105 nM; at CDK5/p25NCK it was 93 nM.

Regarding `CC1(Nc2nc(C#N)cc3cnc(N[C@H]4CC[C@H](N)C4)cc23)CC1` [Compound 50, 7-(((1S,3S)-3-aminocyclopentyl)amino)-1-((1-methylcyclopropyl)amino)-2,6-naphthyridine-3-carbonitrile], the IC50 against CDK9/CycT1 was 2 nM; on CDK2/CycA2, 73 nM; against CDK3/CycE1, 208 nM; against CDK5/p25NCK it was 119 nM.

Regarding `CC(C)Oc1nc(C#N)cc2cnc(N[C@H]3CC[C@H](N)C3)cc12` [Compound 51, 7-(((1S,3S)-3-aminocyclopentyl)amino)-1-isopropoxy-2,6-naphthyridine-3-carbonitrile], the IC50 on CDK9/CycT1 was found to be 1 nM; against CDK2/CycA2 it was 73 nM; against CDK3/CycE1, 88 nM; against CDK5/p25NCK it was 142 nM.

Consider `CC(C)Nc1nc(C(F)F)cc2cnc(N[C@H]3CCCNC3)cc12` [Compound 54, (S)-3-(difluoromethyl)-N^1-isopropyl-N^7-(piperidin-3-yl)-2,6-naphthyridine-1,7-diamine], for which the IC50 against CDK9/CycT1 is 1 nM; at CDK2/CycA2, 15 nM; on CDK3/CycE1, 14 nM; at CDK5/p25NCK it was 10 nM.

For the molecule `CCNc1nc(C#N)cc2cnc(N[C@H]3C[C@H](N)C3)nc12` [Compound C28, 2-(((1r,3r)-3-aminocyclobutyl)amino)-8-(ethylamino)pyrido[3,4-d]pyrimidine-6-carbonitrile], the IC50 at CDK9/CycT1 came to 1 nM; at CDK1/CycE1 it was 186 nM; at CDK2/CycA2, 34 nM.

On to `N#Cc1cc2cnc(N[C@H]3C[C@H](N)C3)nc2c(NC2CCOCC2)n1` [Compound C30, 2-(((1r,3r)-3-aminocyclobutyl)amino)-8-((tetrahydro-2H-pyran-4-yl)amino)pyrido[3,4-d]pyrimidine-6-carbonitrile], for which the IC50 amounted to 2 nM on CDK9/CycT1, 99 nM at CDK1/CycE1 and 83 nM at CDK2/CycA2.

With `CC(C)Nc1nc(C#N)cc2cnc(N[C@H]3C[C@H](CO)C3)nc12` [Compound C31, 2-(((1r,3r)-3-(hydroxymethyl)cyclobutyl)amino)-8-(isopropylamino)pyrido[3,4-d]pyrimidine-6-carbonitrile], the IC50 worked out at 2 nM against CDK9/CycT1, 21 nM on CDK1/CycE1 and 5 nM against CDK2/CycA2.

With `CC1(Nc2nc(C#N)cc3cnc(N[C@H]4C[C@H](N)C4)nc23)CC1` [Compound C35, 2-(((1r,3r)-3-aminocyclobutyl)amino)-8-((1-methylcyclopropyl)amino)pyrido[3,4-d]pyrimidine-6-carbonitrile], the IC50 worked out at 1 nM against CDK9/CycT1, 112 nM at CDK1/CycE1 and 19 nM against CDK2/CycA2.

As for `N#Cc1cc2cnc(N[C@H]3C[C@H](N)C3)nc2c(NC23CC(C2)C3)n1` [Compound C36, 2-(((1r,3r)-3-aminocyclobutyl)amino)-8-(bicyclo[1.1.1]pentan-1-ylamino)pyrido[3,4-d]pyrimidine-6-carbonitrile], the IC50 at CDK9/CycT1 is 2 nM; on CDK1/CycE1 it was 25 nM; against CDK2/CycA2 it was 32 nM.

Take `COC[C@@H](C)Nc1nc(C#N)cc2cnc(N[C@H]3C[C@H](N)C3)nc12` [Compound C41, 2-(((1r,3R)-3-aminocyclobutyl)amino)-8-(((R)-1-methoxypropan-2-yl)amino)pyrido[3,4-d]pyrimidine-6-carbonitrile]: the IC50 on CDK9/CycT1 turned out to be 1 nM; on CDK1/CycE1 it was 540 nM; against CDK2/CycA2, 82 nM.
